# Experimental data from PubChem BioAssay (NCI).
#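 Test compounds were applied to cells in 96-well plates for 48 hours at 5 doses. Here, GI50 denotes the concentration required for 50% inhibition of growth. At the TGI there is no net growth.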
# Assays:
# Experiment in all cases: inhibition of tumour cell growth, NCI panel, 48 h
# MDA-MB-231 breast = tested on: MDA-MB-231 breast
# MDA-MB-435 = tested on: MDA-MB-435
# MDA-N = tested on: MDA-N
# DMS 273 small cell lung = tested on: DMS 273 small cell lung
# XF 498 CNS = tested on: XF 498 CNS
# KM20L2 colon = tested on: KM20L2 colon
# DLD-1 colon = tested on: DLD-1 colon
# LXFL 529 NSCLC = tested on: LXFL 529 NSCLC
# RXF-631 renal = tested on: RXF-631 renal
Structure (SMILES),GI50 (MDA-MB-231 breast) [µM],TGI (MDA-MB-231 breast) [µM],GI50 (MDA-MB-435) [µM],TGI (MDA-MB-435) [µM],TGI (DMS 273 small cell lung) [µM],TGI (KM20L2 colon) [µM],further results
CCC(=O)Sc1ccccc1C(=O)Nc1ccc(Cl)cc1,11.2,45.7,6.92,39.9,,,
COC(=O)c1ccc(CN2CCc3c([nH]c4ccccc34)C2CO)o1 (stereo not given),,> 10,,> 10,,,TGI (MDA-N): > 10 µM
CCN(CC)c1ccc(NC(C(=O)c2ccccc2)c2ccccc2)cc1 (stereo not given),2.85,10.3,2.25,6.05,,,
COc1ccc(C2C3=C(NC(=O)C2C#N)c2ccc4ccccc4c2OCC3)cc1 (stereo not given),17.9,43.2,> 100,> 100,,,
[Cu+2].[Cu+2].[O-]c1ccccc1C=Nc1ccccc1[O-].[O-]c1ccccc1C=Nc1ccccc1[O-],,,,,13.6,28,GI50 (DMS 273 small cell lung): 2.54 µM; GI50 (XF 498 CNS): 2.67 µM; TGI (XF 498 CNS): 7.16 µM; GI50 (KM20L2 colon): 8.16 µM; GI50 (DLD-1 colon): 3.95 µM; TGI (DLD-1 colon): 16.6 µM; GI50 (LXFL 529 NSCLC): 3.02 µM; TGI (LXFL 529 NSCLC): 9.48 µM
Cc1ccc(NS(=O)(=O)c2ccc(-c3cnc(C4CC4)o3)cc2)cc1,4.5,18.8,0.879,3.94,,,
COc1nc(OC)c2c(=O)oc(-c3ccccc3)cc2n1,,,,,> 100,> 100,TGI (LXFL 529 NSCLC): > 100 µM
CCOc1ccc(NC(=O)Nc2cc(C(C)C)ccc2C)cc1,3.79,15.8,17.6,> 100,,,
COc1ccc(-c2cc3c4c(nc5ccccc5c4c2)CC(c2cc(OC)c(OC)c(OC)c2)O3)cc1 (stereo not given),2.15,7.16,2.99,13.7,,,
O=C(O)CSc1n[nH]c(/C=C/c2ccccc2)n1,,,,,> 100,> 100,TGI (XF 498 CNS): > 100 µM; TGI (DLD-1 colon): > 100 µM; TGI (LXFL 529 NSCLC): > 100 µM
CCCCN(CC)C(=O)C(=O)C1C(=O)Nc2ccccc2S1=O (stereo not given),,,,,> 100,> 100,TGI (DLD-1 colon): > 100 µM; TGI (LXFL 529 NSCLC): > 100 µM
COC(=O)N1[C@H]2Cc3c(OC)c(C)c(OC)c(OC)c3[C@@H]1/C(=C\c1cc(OC)c(OC)c(C)c1OC)N(Cc1ccccc1)C2=O,,,,,> 100,> 100,TGI (DLD-1 colon): > 100 µM; TGI (LXFL 529 NSCLC): > 100 µM
Cc1cc(N(CCCl)CCCl)ccc1C=Nc1cccnc1,67.6,> 100,37.8,> 100,,,
O=C1CCC2(c3ccc(F)cc3)Nc3ccccc3N12 (stereo not given),,,,,,> 100,TGI (XF 498 CNS): > 100 µM; TGI (RXF-631 renal): > 100 µM; TGI (DLD-1 colon): > 100 µM; TGI (LXFL 529 NSCLC): > 100 µM
COc1ccccc1-c1cc2c3c(nc4ccccc42)C(=O)c2cccnc2-c3n1,18.2,> 56.7,12.5,33.3,,,GI50 (MDA-N): 14.9 µM; TGI (MDA-N): 28.5 µM
COC(=O)C(=O)C(C(=O)C(=O)Nc1ccccc1C(=O)OC)c1nc2ccc(C(=O)c3ccccc3)cc2[nH]c1=O (stereo not given),,> 100,,> 100,,,TGI (MDA-N): > 100 µM
CN(C)c1c(Cl)c(=O)oc2c1ccc1nc(-c3ccccc3)sc12,,> 100,,> 100,,,TGI (MDA-N): > 100 µM

Structure (SMILES),GI50 (MDA-MB-231 breast) [µM],TGI (MDA-MB-231 breast) [µM],GI50 (MDA-MB-435) [µM],TGI (MDA-MB-435) [µM],TGI (DMS 273 small cell lung) [µM],TGI (KM20L2 colon) [µM],further results
c1ccc2c(c1)O[As](O[As]1Oc3ccccc3O1)O2,2.11,10.7,2.8,13.9,,,
Cc1c(Cl)ccc2c1NC(=O)C2(O)CC(=O)c1ccc(Cl)cc1Cl (stereo not given),,> 50,,> 50,> 50,> 50,TGI (XF 498 CNS): > 50 µM; TGI (MDA-N): > 50 µM; TGI (RXF-631 renal): > 50 µM; TGI (LXFL 529 NSCLC): > 50 µM
C=CC1CC12C(=O)C1OC2(C)C2C(=O)c3ccccc3C(=O)C12 (stereo not given),24.8,> 100,> 40.1,> 54.4,,,
COc1cc2c(cc1OC)C13CCN4CC5=CCOC(CC(=O)O)C(C5CC41)C3N2 (stereo not given),,> 100,,> 100,,,TGI (MDA-N): > 100 µM
COc1ccc2c(c1)Oc1nc(N)c(C#N)c(N)c1C2Sc1ccc(SC)cc1 (stereo not given),1.85,3.38,1.74,3.23,,,
CC(NC(=O)c1ccccc1)C(=O)N(Cc1ccccc1)Cc1ccccc1 (stereo not given),,,,,47.1,90.4,TGI (DLD-1 colon): > 100 µM; TGI (LXFL 529 NSCLC): 53.4 µM
COc1cc(OC)c(-c2cc(=O)c3c(OC)c(OC)c(OC)c(OC)c3o2)cc1OC,,> 100,,> 100,,,TGI (MDA-N): > 100 µM
Cc1nc2sc(C(=O)Nc3cccc4ccccc34)c(N)c2cc1C(C)O (stereo not given),0.751,> 50,,,,,
COc1ccc(-c2cc3cccc(OC)c3c(=O)o2)cc1OC,22.8,> 100,3.22,> 100,,,
COC(=O)c1cnc2nc(N3CCOCC3)[nH]n2c1=O,,,,,> 100,> 100,
O=C1c2ccn(CCCCN3CCOCC3)c2C(=O)c2c1c(O)c1ccccc1c2O,12.7,32.4,2.13,4.62,,,
CCCCOC1CC2(c3ccc(OC)cc3)C(=O)c3ccccc3N2O1 (stereo not given),,,,,> 10,> 10,TGI (XF 498 CNS): > 10 µM; TGI (RXF-631 renal): > 10 µM
O=C1C(=O)c2ccc(Br)cc2-c2cc(Br)ccc21,0.82,2.54,1.76,4.07,,,
CCOC(C)OCC#CCCBr (stereo not given),,,,,> 100,> 100,TGI (DLD-1 colon): > 100 µM; TGI (LXFL 529 NSCLC): > 100 µM
CN(C(=O)C1CCCCC1)c1ccccc1I(=O)=O,70,> 100,41.4,> 100,,,
COC(=O)/C(=C/c1ccc(OC)cc1)C(C(=O)O)=C(C)C,,,,,> 100,> 100,TGI (DLD-1 colon): > 100 µM; TGI (LXFL 529 NSCLC): > 100 µM
Cc1ccc(S(=O)(=O)N(C)C)cc1[N+](=O)[O-],> 100,> 100,> 100,> 100,,,
